Where two headings read alike, the source gives them in different places. Marks after values point to notes of the source that are not given here.
Key:
[1] = test system: fecal samples from breast-fed infants (intestinal flora); assay: Anaerobic fermentation of HMOs with fecal inocula of breast-fed infants, agmatine in supernatant by GC/MS and LC/MS/MS; type: cell-based, human; details: for Increase of agmatine, HMO/blank (relative ratio of agmatine compared to the blank): breast fed infants, fermentation culture 37° C.
Procedure: (§1) Fecal samples from eight human babies, one group of four breast-fed and the other group of four formula-fed, were used as inocula for anaerobic fermentation (37° C.) of lacto-N-neotetraose (LNnT) and 2′-fucosyllactose. Supernatants from the fermentation cultures were sampled at 0 hr, 3 hr, and 6 hr. A culture without addition of HMOs served as a control. A sample of the fermentation medium (blank), which constituted approximately 90% of the starting culture volume, was also analyzed.
(§2) Samples were extracted and split into equal parts for analysis on GC/MS and LC/MS/MS platforms. Agmatine ions were identified in chromatograms, and peak area was integrated for quantitative analysis.

[2] = test system: fecal samples from formula-fed infants (intestinal flora); assay: Anaerobic fermentation of HMOs with fecal inocula of formula-fed infants, agmatine in supernatant by GC/MS and LC/MS/MS; type: cell-based, human; details: for Increase of agmatine, HMO/blank (relative ratio of agmatine compared to the blank): formula fed infants, fermentation culture 37° C.
Procedure: as §1, §2

[3] = mice, peripheral injection at 50 and 300 mg/kg; cited from earlier work
[4] = non-human primates, peripheral injection at 50 and 300 mg/kg; cited from earlier work
[5] = test system: NMDA subclass of glutamate receptors; details: cited from earlier work
[6] = test system: nitric oxide synthase (NOS), all isoforms; details: cited from earlier work

| SMILES | Increase of agmatine, HMO/blank (relative ratio of agmatine compared to the blank) ([1]; 0 h) | Increase of agmatine, HMO/blank (relative ratio of agmatine compared to the blank) ([1]; 3 h) | Increase of agmatine, HMO/blank (relative ratio of agmatine compared to the blank) ([1]; 6 h) | agmatine relative to a blank (in words) ([1]; fecal samples from breast-fed infants (BF)) | agmatine relative to a blank (in words) ([2]; fecal samples from formula-fed infants (FF)) | Increase of agmatine, HMO/blank (relative ratio of agmatine compared to the blank) ([2]; 0 h) | Increase of agmatine, HMO/blank (relative ratio of agmatine compared to the blank) ([2]; 3 h) | Increase of agmatine, HMO/blank (relative ratio of agmatine compared to the blank) ([2]; 6 h) | brain agmatine concentrations [3] | brain agmatine concentrations [4] | affinity for the NMDA subclass of glutamate receptors [5] | inhibition of NOS isoforms [6] | nitric oxide production [6] |
| --- | --- | --- | --- | --- | --- | --- | --- | --- | --- | --- | --- | --- | --- |
| CC(=O)N[C@H]1[C@H](O[C@H]2[C@@H](O)[C@@H](CO)O[C@@H](O[C@H]3[C@H](O)[C@@H](O)C(O)O[C@@H]3CO)[C@@H]2O)O[C@H](CO)[C@@H](O[C@@H]2O[C@H](CO)[C@H](O)[C@H](O)[C@H]2O)[C@@H]1O (mixture of isomers) [LNnT, lacto-N-neotetraose] | 9.52^a | 34.4 | 1.59 | dramatic increases in agmatine | dramatic increases in agmatine | 2.12 | 61.77^a | 75.02^a |  |  |  |  |  |
| N=C(N)NCCCCN [agmatine] |  |  |  |  |  |  |  |  | significant increases in brain agmatine concentrations | significant increases in brain agmatine concentrations | modest affinity | inhibit all isoforms of NOS | suppress nitric oxide production |
